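Protocol summary: plate cells (96-well), add compound at 5 concentrations, incubate 48 h, interpolate endpoints linearly. The concentration for 50% growth inhibition is given as GI50. TGI is the concentration that stops growth completely.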
Tests used:
Experiment in all cases: inhibition of tumour cell growth, NCI panel, 48 h
[1] = test system: SF-539 CNS
[2] = test system: HCT-116 colon
[3] = test system: MCF7 breast
[4] = test system: OVCAR-4 ovarian
[5] = test system: K-562 leukemia
[6] = test system: UO-31 renal
[7] = test system: MOLT-4 leukemia
[8] = test system: A549 NSCLC
[9] = test system: RPMI-8226 leukemia
[10] = test system: HL-60(TB) leukemia

| Compound | GI50 [1] [µM] | TGI [1] [µM] | GI50 [2] [µM] | TGI [2] [µM] | GI50 [3] [µM] | TGI [3] [µM] | GI50 [4] [µM] | TGI [4] [µM] | GI50 [5] [µM] | TGI [5] [µM] | GI50 [6] [µM] | TGI [6] [µM] | GI50 [7] [µM] | TGI [7] [µM] | TGI [8] [µM] | TGI [9] [µM] | TGI [10] [µM] | GI50 [8] [µM] | GI50 [9] [µM] | GI50 [10] [µM] |
| --- | --- | --- | --- | --- | --- | --- | --- | --- | --- | --- | --- | --- | --- | --- | --- | --- | --- | --- | --- | --- |
| CC1(C)CC(O)CCCCCCOc2c(CN)cccc2NC(=O)c2nc(cnc2N)-c2ccc(cc2)S1(=O)=O (stereo unspecified) | 0.0363 | 1.73 | 0.187 | 1.03 | < 0.01 | 1.81 | 1.3 | 3.43 | 0.0538 | 2.69 | 0.648 | 2.25 | < 0.0122 | 2.01 | – | – | – | – | – | – |
| CC(=O)NNc1nc(C)c(C(/C=C/c2ccc(Cl)cc2)=N/NC(=S)NN)s1 | – | > 100 | – | > 100 | – | – | – | > 100 | – | > 100 | – | > 100 | – | > 100 | > 100 | > 100 | > 100 | – | – | – |
| CCc1ccccc1NC(=O)C1=C(C)NC(C)=C(C(=O)Nc2ccccc2CC)C1c1ccc(NC(C)=O)cc1 | – | 68 | – | > 100 | – | – | – | > 100 | – | 77.9 | – | > 100 | – | 54.4 | > 100 | 48.9 | 39.5 | – | – | – |
| O/N=C1/C(=C/c2ccccc2)CCCC1C(NO)c1ccccc1 (stereo unspecified) | – | > 100 | – | > 100 | – | – | – | > 100 | – | > 100 | – | > 100 | – | 90.8 | > 100 | > 100 | 5.03 | – | – | – |
| Cc1ccc2oc(=O)cc(C3c4ccc([nH]4)C(c4cc(=O)oc5ccc(C)cc45)c4ccc([nH]4)C(c4cc(=O)oc5ccc(C)cc45)c4ccc([nH]4)C(c4cc(=O)oc5ccc(C)cc45)c4ccc3[nH]4)c2c1 (stereo unspecified) | 0.0239 | 0.0669 | 0.0295 | 0.28 | 0.0394 | 1.95 | 0.104 | 3.81 | – | – | 0.0364 | 1.19 | – | – | 1.54 | 0.578 | – | 0.063 | 0.0516 | – |
| COC(=O)NN=C1C(C)(C)C(=NNC(=O)OC)C1(C)C | – | > 100 | – | > 62.5 | – | – | – | > 100 | – | > 100 | – | > 100 | – | > 100 | > 100 | – | > 100 | – | – | – |
| COC(=O)C(C(=O)C(=O)Nc1ccc(C)cc1C)c1nc2ccc([N+](=O)[O-])cc2[nH]c1=O (stereo unspecified) | – | > 100 | – | > 100 | – | – | – | > 100 | – | > 100 | – | > 100 | – | > 100 | > 100 | > 100 | > 100 | – | – | – |
| CC(=O)Oc1cc(OC(C)=O)c2cc3c(cc2c1OC(C)=O)C(=O)C1(CCCC1)C3=O | – | – | – | – | – | – | – | 33 | – | 49.3 | – | 29.8 | – | 15 | 40.4 | 4.89 | 73.6 | – | – | – |
| NC(=O)N/N=C1/CCCC/C1=C\c1ccccc1 | – | > 100 | – | > 100 | – | – | – | > 100 | – | > 100 | – | > 100 | – | > 100 | > 100 | > 100 | > 100 | – | – | – |
| COC(=O)C1=C2CO[C@@H]3C[C@H]4C(C)(C)CCC[C@]4(C)C(=CC1)[C@]23C | 72.7 | > 100 | 22.5 | 51.3 | 44 | > 100 | 62.1 | > 100 | – | – | 60.7 | > 100 | 5.48 | 30.5 | > 100 | 29.9 | – | 36.8 | 13.6 | – |
| CCCCCCCCCCCCCCCCCCOCC1(COP(=O)([O-])OCC[N+](C)(C)C)CCCO1 (stereo unspecified) | – | 29.4 | – | 22 | – | – | – | 8.38 | – | 31.7 | – | 21.9 | – | 4.84 | 20.6 | 8.55 | 5.24 | – | – | – |
| CC(C)(C)[Si](Nc1ccccc1)(c1ccccc1)c1ccccc1 | – | 25 | – | 20.6 | – | – | – | 27.1 | – | 25.1 | – | 18.5 | – | 26.2 | 28.2 | 44.1 | 31.3 | – | – | – |
| C[C@@]1(CBr)C[C@@](C)(/C=C/Cl)[C@@H](Cl)C[C@H]1Cl | – | 27.9 | – | 21.2 | – | – | – | 24.6 | – | 25.3 | – | 29.1 | – | 19.4 | 26.1 | – | 8.6 | – | – | – |
| COc1cc(CCC(=O)NS(=O)(=O)c2ccccc2)cc(OC)c1OC | – | > 100 | – | > 100 | – | – | – | > 100 | – | > 100 | – | > 100 | – | > 100 | > 100 | > 100 | > 100 | – | – | – |
| NC(=O)C12CCC1C1CCCCC12N1CCOCC1 (stereo unspecified) | – | > 100 | – | > 100 | – | – | – | > 100 | – | > 100 | – | > 100 | – | > 100 | > 100 | > 100 | > 100 | – | – | – |
| CC(=O)[CH-]C(=O)c1ccccc1.CC(=O)[CH-]C(=O)c1ccccc1.CC[O-].O=C1C=C([O-])C(=O)c2ccccc21.[Ti+4] | > 100 | > 100 | 62.5 | > 100 | – | – | > 100 | > 100 | > 100 | > 100 | > 100 | > 100 | 58.3 | > 100 | > 100 | 85.8 | 80 | 46.3 | 16.9 | 16.1 |
| O=C1/C(=C/c2ccc(C(F)(F)F)cc2)COc2ccc(O)cc21 | 1.68 | 3.3 | 1.77 | 3.42 | – | – | 3.4 | 13 | – | – | 1.26 | 2.67 | 2.33 | 21.2 | 24.9 | 0.885 | 4.35 | 11.8 | 0.29 | 1.27 |
| COc1cc(C(=C2SCCS2)c2nccc3cc(OC)c(OC)cc23)c([N+](=O)[O-])cc1OC | – | > 100 | – | > 100 | – | – | – | – | – | > 100 | – | > 100 | – | > 100 | > 100 | > 100 | 94.6 | – | – | – |
| CN(C)NC(=S)NC12CC3CC(CC(C3)C1)C2 | – | > 100 | – | > 100 | – | – | – | > 100 | – | > 100 | – | > 100 | – | > 100 | > 100 | – | > 100 | – | – | – |
| C/C(CC(=O)Nc1ccc(NC(=O)/C(C)=N/NS(=O)(=O)c2ccc(C)cc2)cc1)=N\NS(=O)(=O)c1ccc(C)cc1 | – | > 100 | – | > 100 | – | – | – | – | – | > 100 | – | > 100 | – | > 100 | > 100 | > 100 | > 100 | – | – | – |
